Among the test systems are SK-MEL-2 melanoma; LOX IMVI melanoma; NCI-H460 lung; CAKI-1 renal; SNB-19 CNS; NCI-H226 lung; HCT-116 colon; OVCAR-4 ovarian; SW-620 colon; UACC-257 melanoma.
Holding throughout (assay): NCI-60 cell line screen, 48 h

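1) Cells in 96-well plates. 2) Compound, 48 h, 5 concentrations. 3) Linear interpolation between surrounding doses. 4) Unreached endpoint = highest concentration. GI50 = concentration required for 50% inhibition of growth. TGI: concentration producing complete growth inhibition.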 Where only a bound is given, the exact number is not on record here.

With `O=C(CSc1ncc(-c2ccccc2)n1-c1ccccc1)Nc1ccc(-c2nc3ccccc3s2)cc1`, the GI50 in the test on SK-MEL-2 melanoma is 12 µM; in the test on LOX IMVI melanoma, 5.31 µM; in the test with NCI-H460 lung, 3.61 µM; in the test with CAKI-1 renal, 4.21 µM; in the test on SNB-19 CNS it was 15.1 µM; with NCI-H226 lung, 43.3 µM. In the test on HCT-116 colon, the GI50 was 3.68 µM. Moreover, the TGI in the test on SK-MEL-2 melanoma was 73.2 µM; with LOX IMVI melanoma it was greater than 100 µM; in the test on NCI-H460 lung, greater than 100 µM; in the test on CAKI-1 renal, greater than 100 µM; in the test with SNB-19 CNS, greater than 100 µM; in the test with NCI-H226 lung, greater than 100 µM. Further, in the test on HCT-116 colon, the TGI was greater than 100 µM.

As to `COC(=O)C1=C(\O)C[C@@]2(C)CC[C@@H](C(=O)OC)C2C/C=C\1C(=O)OC` (some centres undefined), the TGI in the test with LOX IMVI melanoma, in the test on NCI-H460 lung, in the test on CAKI-1 renal, in the test on OVCAR-4 ovarian, in the test with SW-620 colon and in the test on SNB-19 CNS was greater than 100 µM throughout. Moreover, the TGI in the test on NCI-H226 lung, in the test with HCT-116 colon and in the test on UACC-257 melanoma was greater than 100 µM in each case.

Consider `COc1c(C)c(O)c2c(c1C)OC(c1ccccc1)CC2=O` (centres undefined), for which the TGI was 74.1 µM with SK-MEL-2 melanoma; greater than 100 µM in the test on LOX IMVI melanoma; greater than 100 µM in the test on NCI-H460 lung; greater than 100 µM in the test on CAKI-1 renal; greater than 100 µM in the test with OVCAR-4 ovarian; greater than 100 µM with SW-620 colon. For the same molecule, the TGI in the test on NCI-H226 lung and in the test with HCT-116 colon was greater than 100 µM throughout.

With `O=C(O)c1cn(C2CC2)c2cc(N3CCN(Cc4ccc5ccccc5c4O)CC3)c(F)cc2c1=O`, the GI50 with SK-MEL-2 melanoma was 5.11 µM; in the test on LOX IMVI melanoma, 3.13 µM; with SNB-19 CNS, 29.8 µM; in the test with NCI-H226 lung it was 3.14 µM. Moreover, the TGI in the test with SK-MEL-2 melanoma, in the test on LOX IMVI melanoma, with SNB-19 CNS and in the test with NCI-H226 lung was greater than 100 µM each time.

For `Nc1nc2ncn(CC(O)COC(=O)c3ccccc3)c2c(=O)[nH]1` (centres undefined), the TGI in the test on SK-MEL-2 melanoma, with LOX IMVI melanoma, with NCI-H460 lung, in the test on CAKI-1 renal, in the test with OVCAR-4 ovarian and in the test with SW-620 colon was greater than 100 µM each time. The TGI in the test with NCI-H226 lung, in the test with HCT-116 colon and with UACC-257 melanoma was greater than 100 µM throughout.

`CC1CC(c2ccc(Cl)c(Cl)c2)=Nc2ccccc2S1` (centres undefined): the TGI in the test on LOX IMVI melanoma, in the test on NCI-H460 lung, in the test on CAKI-1 renal, in the test on OVCAR-4 ovarian, in the test with SW-620 colon and in the test with SNB-19 CNS was greater than 100 µM in each case. The TGI in the test with NCI-H226 lung, in the test with HCT-116 colon and in the test with UACC-257 melanoma was greater than 100 µM each time.

For `Cc1[nH]n(-c2cccc(Cl)c2)c(=O)c1/C=C1\C=c2ccccc2=CC1=O`, the GI50 is 21.8 µM in the test with SK-MEL-2 melanoma; greater than 100 µM in the test with LOX IMVI melanoma; greater than 100 µM with NCI-H460 lung; greater than 100 µM in the test on CAKI-1 renal; greater than 100 µM in the test on OVCAR-4 ovarian; greater than 100 µM in the test on SW-620 colon. Moreover, the values for the GI50 in the test with SNB-19 CNS, in the test on HCT-116 colon and in the test with UACC-257 melanoma were 45.7 µM, greater than 100 µM and greater than 100 µM, respectively. Also, the TGI with SK-MEL-2 melanoma was 70.2 µM; in the test on LOX IMVI melanoma it was greater than 100 µM; in the test on NCI-H460 lung, greater than 100 µM; with CAKI-1 renal, greater than 100 µM; in the test with OVCAR-4 ovarian, greater than 100 µM; with SW-620 colon, greater than 100 µM. Also, the TGI in the test with SNB-19 CNS, in the test on HCT-116 colon and with UACC-257 melanoma was greater than 100 µM each time.

As for `COc1cc(/C=C/c2cc(O)c(C/C=C(\C)CC/C=C(\C)CO)c(O)c2)cc2c1O[C@]1(C)CC[C@@H](O)C(C)(C)[C@H]1C2`, the GI50 is greater than 100 µM in the test on SK-MEL-2 melanoma; 9.36 µM in the test with CAKI-1 renal; 32.5 µM in the test with OVCAR-4 ovarian; greater than 91.9 µM with SNB-19 CNS; greater than 100 µM in the test on UACC-257 melanoma. The TGI in the test on SK-MEL-2 melanoma was greater than 100 µM; in the test on NCI-H460 lung, greater than 100 µM; in the test on CAKI-1 renal, greater than 42.9 µM; with OVCAR-4 ovarian it was greater than 100 µM; in the test with SNB-19 CNS it was greater than 100 µM; in the test with NCI-H226 lung it was greater than 100 µM. The TGI in the test with HCT-116 colon is 46.5 µM; with UACC-257 melanoma, greater than 100 µM.

`COc1cc(-c2nn(-c3cccc(NC(=O)CCN4CCN(C)CC4)c3)cc2-c2ccncc2)ccc1Cl`: the GI50 with SK-MEL-2 melanoma is 0.889 µM; with LOX IMVI melanoma it was 0.922 µM; with NCI-H460 lung, 0.532 µM; in the test with OVCAR-4 ovarian it was 1.73 µM; with SW-620 colon, 0.443 µM; in the test on SNB-19 CNS, 2.01 µM. Further, the GI50 is 3.67 µM in the test with NCI-H226 lung, 0.904 µM with HCT-116 colon and 1.44 µM with UACC-257 melanoma. Also, the TGI with SK-MEL-2 melanoma came to 2.55 µM; in the test on LOX IMVI melanoma, 2.22 µM; with NCI-H460 lung it was 2.28 µM; with OVCAR-4 ovarian, 11.4 µM; in the test with SW-620 colon, 1.86 µM; with SNB-19 CNS, 8.89 µM. The values for the TGI in the test with NCI-H226 lung, in the test on HCT-116 colon and in the test on UACC-257 melanoma were 22.3 µM, 4.17 µM and 3.07 µM, respectively.

Regarding `C#Cc1ccc(-n2c(/C=C/c3ccc4ccccc4c3)nc3ncccc3c2=O)cc1`, the GI50 in the test on SK-MEL-2 melanoma is 2.41 µM; in the test with LOX IMVI melanoma, 0.517 µM; in the test with NCI-H460 lung, 2.88 µM; in the test on CAKI-1 renal, 2.98 µM; in the test on OVCAR-4 ovarian, 1.95 µM. The TGI in the test on SK-MEL-2 melanoma was 6.2 µM; in the test with LOX IMVI melanoma it was 3.11 µM; in the test with NCI-H460 lung, greater than 100 µM; with CAKI-1 renal, greater than 100 µM; in the test on OVCAR-4 ovarian, greater than 100 µM.

For `NCC1(N2CCOCC2)C2CCCC21CNc1ccccc1` (centres undefined), the TGI in the test with LOX IMVI melanoma, with NCI-H460 lung, in the test with CAKI-1 renal, in the test on OVCAR-4 ovarian, in the test with SW-620 colon and with SNB-19 CNS was greater than 100 µM throughout. Further, the TGI in the test on HCT-116 colon and with UACC-257 melanoma was greater than 100 µM throughout.

These data come from PubChem BioAssay (NCI).
